Where “and” joins values, the source holds several entries; their conditions need not be identical. Equal entries are not always repeated.
Test system: WM3248 melanoma cells, 486 antibodies
Experiment: Reverse phase protein arrays (RPPA)
Assay type: cell-based, Human
Source text: Pellets were snap frozen in liquid nitrogen and shipped to MD Anderson Cancer Center core RPPA facility for RPPA analysis (Table S5). Three biological replicates for each sample were generated.
Nomenclatures on the RPPA heatmaps: name_of_antibody.species_of_antibody.status_of_antibody. V - antibody validated; C - validation of antibody in progress; Q - antibody nonspecific; E – under evaluation; antibodies raised in M - mouse, G - goat, R - rabbit, or T - rat.

[1] = Norm_20: replicates 1-3 and Average, relative to 0
[2] = Norm_20, replicates 1-3 and Average, relative to Norm_0

Structure (SMILES): CN(C)c1cccc(Nc2cc(-c3ccccc3)nc(C3CCNCC3)n2)c1 [ARN22089, N1,N1-dimethyl-N3-(6-phenyl-2-(piperidin-4-yl)pyrimidin-4-yl)benzene-1,3-diamine]
- Shc_pY317.R.C normalized RPPA signal [1]: 0.757 and 1.584 and 1.301 and 1.214
- Slfn11.G.C normalized RPPA signal [1]: 1.108 and 1.363 and 1.188
- Smac.M.Q normalized RPPA signal [1]: 0.931 and 0.960 and 0.983 and 0.958
- Smad1.R.V normalized RPPA signal [1]: 0.987 and 0.977 and 1.047 and 1.004
- Smad3.R.V normalized RPPA signal [1]: 1.165 and 1.119 and 1.154
- Smad4.R.V normalized RPPA signal [1]: 1.296 and 1.077 and 0.835
- Snail.M.Q normalized RPPA signal [1]: 0.600 and 0.686 and 0.609 and 0.632
- Sox2.R.V normalized RPPA signal [1]: 1.375 and 1.408 and 0.996 and 1.260
- Sox17.R.V normalized RPPA signal [1]: 0.910 and 0.971 and 1.024 and 0.968
- Src.M.V normalized RPPA signal [1]: 0.856 and 0.994 and 0.844 and 0.898
- Src_pY416.R.V normalized RPPA signal [1]: 0.922 and 0.983 and 0.992
- Src_pY527.R.V normalized RPPA signal [1]: 1.101 and 1.696 and 1.289
- Stat1_pY701.R.V normalized RPPA signal [1]: 0.978 and 0.992 and 1.003
- Stat3.R.C normalized RPPA signal [1]: 0.916 and 0.933 and 0.984 and 0.944
- Stat3_pY705.R.C normalized RPPA signal [1]: 1.624 and 1.373 and 1.082 and 1.360
- Stat5a.R.V normalized RPPA signal [1]: 0.918 and 1.001 and 1.032
- Stathmin.1.R.V normalized RPPA signal [1]: 1.002 and 0.917 and 0.896 and 0.939
- Syk.M.V normalized RPPA signal [1]: 0.729 and 0.896 and 0.950 and 0.859
- Synaptophysin.R.C normalized RPPA signal [1]: 1.010 and 0.835 and 0.914 and 0.920
- TAZ.R.V normalized RPPA signal [1]: 0.593 and 0.609 and 0.746
- TEAD.R.C normalized RPPA signal [1]: 0.753 and 0.847 and 1.189 and 0.929
- TFAM.R.V normalized RPPA signal [1]: 1.017 and 0.908 and 0.988
- TFRC.R.V normalized RPPA signal [1]: 0.954 and 0.936 and 0.905
- TIGAR.R.V normalized RPPA signal [1]: 1.016 and 1.029 (2×)
- TRAP1.M.V normalized RPPA signal [1]: 0.880 and 0.858 and 0.987 and 0.908
- TRIM24.R.C normalized RPPA signal [1]: 0.971 and 1.220 and 0.935
- TRIM25.R.C normalized RPPA signal [1]: 0.761 and 0.842 and 1.250
- TRIP13.R.V normalized RPPA signal [1]: 0.937 and 1.026 and 0.990 and 0.984
- Tau.M.C normalized RPPA signal [1]: 1.361 and 0.904 and 1.112
- Transglutaminase.M.V normalized RPPA signal [1]: 0.939 and 1.702 and 2.431 and 1.691
- A.Raf.R.V RPPA signal, normalized [2]: 1.150 and 0.931 and 1.016
- A.Raf_pS299.R.C RPPA signal, normalized [2]: 0.948 and 1.046 and 0.962 and 0.985
- ACC1.R.C RPPA signal, normalized [2]: 0.841 and 0.807 and 0.895
- ACC_pS79.R.V RPPA signal, normalized [2]: 1.085 and 0.894 and 1.442 and 1.140
- ACLY_pS455.R.V RPPA signal, normalized [2]: 0.968 and 1.117 and 1.143 and 1.076
- ACSL1.R.V RPPA signal, normalized [2]: 0.997 and 1.027 and 1.096
- ACVRL1.R.C RPPA signal, normalized [2]: 0.959 and 0.966 and 0.988
- ADAR1.M.V RPPA signal, normalized [2]: 1.103 and 1.393 and 0.980 and 1.159
- ALKBH5.R.V RPPA signal, normalized [2]: 1.265 and 1.161 and 1.050 and 1.159
- AMPK.a2_pS345.R.V RPPA signal, normalized [2]: 0.925 and 1.020 and 1.006
- AMPKa.R.C RPPA signal, normalized [2]: 0.976 and 1.132 and 1.050
- AMPKa_pT172.R.C RPPA signal, normalized [2]: 1.665 and 1.252 and 2.191 and 1.703
- AR.R.V RPPA signal, normalized [2]: 1.167 and 0.791 and 1.202 and 1.053
- ARID1A.R.C RPPA signal, normalized [2]: 2.135 and 2.023 and 0.945 and 1.701
- ASNS.R.V RPPA signal, normalized [2]: 1.259 and 1.098 (2×)
- ATM.R.V RPPA signal, normalized [2]: 0.728 and 0.823 and 1.123 and 0.891
- ATM_pS1981.R.V RPPA signal, normalized [2]: 0.946 and 1.124 and 1.011 and 1.027
- ATP5A.M.C RPPA signal, normalized [2]: 1.004 and 1.426 and 2.191 and 1.541
- ATP5H.R.V RPPA signal, normalized [2]: 1.249 and 1.351 and 1.098 and 1.232
- ATR.R.V RPPA signal, normalized [2]: 0.925 and 0.998 and 0.989
- ATRX.R.C RPPA signal, normalized [2]: 0.884 and 1.433 and 1.198 and 1.172
- ATR_pS428.R.C RPPA signal, normalized [2]: 0.919 and 0.961 and 1.020
- AceCS1.R.V RPPA signal, normalized [2]: 1.098 and 1.011 and 1.293 and 1.134
- Akt1.R.V RPPA signal, normalized [2]: 0.716 and 0.687 and 1.263 and 0.889
- Akt1_pS473.R.V RPPA signal, normalized [2]: 0.845 and 0.816 and 0.918
- Akt2.R.V RPPA signal, normalized [2]: 0.702 and 0.698 and 0.824
- Akt2_pS474.R.C RPPA signal, normalized [2]: 0.820 and 1.141 and 0.958
- Akt.R.V RPPA signal, normalized [2]: 0.842 and 0.873 and 1.113 and 0.943
- Akt_pS473.R.V RPPA signal, normalized [2]: 0.693 and 1.281 and 1.006
- Akt_pT308.R.V RPPA signal, normalized [2]: 1.208 and 0.954 and 1.057
- Ambra1_pS52.R.C RPPA signal, normalized [2]: 0.983 and 1.063 and 0.981 and 1.009
- Annexin.I.M.V RPPA signal, normalized [2]: 0.955 and 0.906 and 1.304 and 1.055
- Annexin.VII.M.V RPPA signal, normalized [2]: 0.988 and 0.859 and 0.972
- Atg3.R.V RPPA signal, normalized [2]: 1.054 and 0.860 and 1.003 and 0.972
- Atg4B.R.C RPPA signal, normalized [2]: 0.929 and 1.167 and 0.972 and 1.023
- Atg5.R.C RPPA signal, normalized [2]: 1.021 and 0.787 and 1.106 and 0.971
- Atg7.R.V RPPA signal, normalized [2]: 0.883 and 0.847 and 0.979 and 0.903
- Aurora.A.R.C RPPA signal, normalized [2]: 1.019 and 1.110 and 1.013
- Aurora.ABC_pT288_pT232_pT198.R.C RPPA signal, normalized [2]: 0.769 and 0.934
- Aurora.B.R.V RPPA signal, normalized [2]: 1.525 and 1.546 and 1.302 and 1.458
- Axl.R.V RPPA signal, normalized [2]: 0.924 and 0.799 and 1.335 and 1.019
- B7.H3.R.C RPPA signal, normalized [2]: 1.111 and 0.745 and 0.965 and 0.940
- B7.H4.R.C RPPA signal, normalized [2]: 0.904 and 0.914 and 0.952
- B.Raf.R.C RPPA signal, normalized [2]: 0.818 and 0.836 and 1.274 and 0.976
- B.Raf_pS445.R.V RPPA signal, normalized [2]: 0.809 and 0.807 and 1.065 and 0.893
- BAP1.M.V RPPA signal, normalized [2]: 0.987 and 0.925 and 1.001
- BCL2A1.R.V RPPA signal, normalized [2]: 0.937 and 1.262 and 1.127
- BMK1.Erk5_pT218_Y220.R.V RPPA signal, normalized [2]: 0.876 and 0.918 and 0.861 and 0.885
- BRCA1.M.C RPPA signal, normalized [2]: 1.226 and 1.030 and 1.116
- BRD4.R.V RPPA signal, normalized [2]: 1.775 and 1.486 and 0.963 and 1.408
- Bad_pS112.R.V RPPA signal, normalized [2]: 1.169
- Bak.R.C RPPA signal, normalized [2]: 1.030 and 0.930 and 1.021 and 0.994
